# Reference: patent US11691986B2, “PTEFB inhibiting macrocyclic compounds” (Bayer Aktiengesellschaft, priority 2017, dated 2023)
# How the values were obtained:
# CDK9/CycT1 = target: T1, CDK9/CycT1 (Homo sapiens, UniProt P50750); test: CDK9/CycT1 high ATP kinase assay (TR-FRET); type: biochemical; conditions: 2 mM ATP; for IC50: Method 1b; for Selectivity high ATP CDK9 over high ATP CDK2: IC50 (high ATP CDK2)/IC50 (high ATP CDK9): minimal values where CDK9 IC50 is at the assay limit of about 1-2 nM
# T1 construct: Recombinant full-length His-tagged human CDK9 and CycT1; His; purchased Life Technologies PV4131; host or cells: insect cells
# Method: 1b. CDK9/CycT1 High ATP Kinase Assay
# CDK9/CycT1-inhibitory activity of compounds of the present invention at a high ATP concentration after preincubation of enzyme and test compounds was quantified employing the CDK9/CycT1 TR-FRET assay as described in the following paragraphs.
# Recombinant full-length His-tagged human CDK9 and CycT1, expressed in insect cells and purified by Ni-NTA affinity chromatography, were purchased from Life Technologies (Cat. No PV4131). As substrate for the kinase reaction biotinylated peptide biotin-Ttds-YISPLKSPYKISEG (C-terminus in amide form) was used which can be purchased e.g. form the company JERINI peptide technologies (Berlin, Germany).
# For the assay 50 nl of a 100 fold concentrated solution of the test compound in DMSO was pipetted into either a black low volume 384 well microtiter plate or a black 1536 well microtiter plate (both Greiner Bio-One, Frickenhausen, Germany), 2 μl of a solution of CDK9/CycT1 in aqueous assay buffer [50 mM Tris/HCl pH 8.0, 10 mM MgCl2, 1.0 mM dithiothreitol, 0.1 mM sodium ortho-vanadate, 0.01% (v/v) Nonidet-P40 (Sigma)] were added and the mixture was incubated for 15 min at 22° C. to allow pre-binding of the test compounds to the enzyme before the start of the kinase reaction. […] The concentration of CDK9/CycT1 was adjusted depending of the activity of the enzyme lot and was chosen appropriate to have the assay in the linear range, typical concentrations were in the range of 0.5 μg/ml. The reaction was stopped by the addition of 3 μl of a solution of TR-FRET detection reagents (0.33 μM streptavidine-XL665 [Cisbio Bioassays, Codolet, France] and 1.67 nM anti-RB(pSer807/pSer811)-antibody from BD Pharmingen [#558389] and 2 nM LANCE EU-W1024 labeled anti-mouse IgG antibody [Perkin-Elmer, product no. AD0077]) in an aqueous EDTA-solution (167 mM EDTA, 0.2% (w/v) bovine serum albumin in 100 mM HEPES pH 7.5).
# The resulting mixture was incubated 1 h at 22° C. to allow the formation of complex between the phosphorylated biotinylated peptide and the detection reagents. Subsequently the amount of phosphorylated substrate was evaluated by measurement of the resonance energy transfer from the Eu-chelate to the streptavidine-XL. Therefore, the fluorescence emissions at 620 nm and 665 nm after excitation at 350 nm was measured in a TR-FRET reader, e.g. a Pherastar (BMG Labtechnologies, Offenburg, Germany) or a Viewlux (Perkin-Elmer). The ratio of the emissions at 665 nm and at […] was taken as the measure for the amount of phosphorylated substrate. The data were normalised (enzyme reaction without inhibitor=0% inhibition, all other assay components but no enzyme=100% inhibition).
# Caco-2 cells = test: Proliferation assay, Caco-2 (crystal violet); type: cell-based; conditions: Homo sapiens, 96 h; Caco-2, 4 days; read-out: Inhibition of Caco-2 cell proliferation IC50
# Method: (§1) Cultivated tumour cells (HeLa, human cervical tumour cells, ATCC CCL-2; NCI-H460, human non-small cell lung carcinoma cells, ATCC HTB-177; DU 145, hormone-independent human prostate carcinoma cells, ATCC HTB-81; HeLa-MaTu-ADR, multidrug-resistant human cervical carcinoma cells, EPO-GmbH Berlin; Caco-2, human colorectal carcinoma cells, ATCC HTB-37; B16F10, mouse melanoma cells, ATCC CRL-6475) were plated at a density of 5,000 cells/well (DU145, HeLa-MaTu-ADR), 3,000 cells/well (NCI-H460, HeLa), 1,500 cells/well (Caco-2), or 1,000 cells/well (B16F10) in a 96-well multititer plate in 200 μL of their respective growth medium supplemented 10% fetal calf serum. After 24 hours, the cells of one plate (zero-point plate) were stained with crystal violet (see below), while the medium of the other plates was supplemented with the test substances in various concentrations (0 μM, as well as in the range of 0.0001-10 μM; the final concentration of the solvent dimethyl sulfoxide was adjusted to 0.1%) using a Hewlett-Packard HP D300 Digital Dispenser. The cells were incubated for 4 days in the presence of test substances. Cell proliferation was determined by staining the cells with crystal violet: the cells were fixed by adding 20 μl/measuring point of an 11% glutaric aldehyde solution for 15 minutes at room temperature. After three washing cycles of the fixed cells with water, the plates were dried at room temperature. The cells were stained by adding 100 μl/measuring point of a 0.1% crystal violet solution (pH 3.0). After three washing cycles of the stained cells with water, the plates were dried at room temperature. The dye was dissolved by adding 100 μl/measuring point of a 10% acetic acid solution. The extinction was determined by photometry at a wavelength of 595 nm. The change of cell number, in percent, was calculated by normalization of the measured values to the extinction values of the zero-point plate (=0%) and the extinction of the untreated (0 Wm) cells (=100%). The IC50 values (inhibitory concentration at 50% of maximal effect) were determined by means of a 4 parameter fit.
# HeLa cells = test: Proliferation assay, HeLa (crystal violet); type: cell-based; conditions: Homo sapiens, 96 h, 4 days, read-out: Inhibition of HeLa cell proliferation IC50
# Method: as §1
# T1 sequence (P50750 whole entry): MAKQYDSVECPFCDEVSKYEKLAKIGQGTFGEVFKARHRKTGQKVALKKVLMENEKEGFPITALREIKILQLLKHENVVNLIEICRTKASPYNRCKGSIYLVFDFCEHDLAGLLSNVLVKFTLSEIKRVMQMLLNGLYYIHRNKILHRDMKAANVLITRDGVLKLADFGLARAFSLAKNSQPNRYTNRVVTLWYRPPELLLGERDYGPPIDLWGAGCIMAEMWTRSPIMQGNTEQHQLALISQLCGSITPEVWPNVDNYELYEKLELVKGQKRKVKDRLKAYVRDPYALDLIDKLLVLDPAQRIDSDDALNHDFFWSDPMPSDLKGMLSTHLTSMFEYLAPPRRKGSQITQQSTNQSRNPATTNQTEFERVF
# T1 sequence (O60563 whole entry partner): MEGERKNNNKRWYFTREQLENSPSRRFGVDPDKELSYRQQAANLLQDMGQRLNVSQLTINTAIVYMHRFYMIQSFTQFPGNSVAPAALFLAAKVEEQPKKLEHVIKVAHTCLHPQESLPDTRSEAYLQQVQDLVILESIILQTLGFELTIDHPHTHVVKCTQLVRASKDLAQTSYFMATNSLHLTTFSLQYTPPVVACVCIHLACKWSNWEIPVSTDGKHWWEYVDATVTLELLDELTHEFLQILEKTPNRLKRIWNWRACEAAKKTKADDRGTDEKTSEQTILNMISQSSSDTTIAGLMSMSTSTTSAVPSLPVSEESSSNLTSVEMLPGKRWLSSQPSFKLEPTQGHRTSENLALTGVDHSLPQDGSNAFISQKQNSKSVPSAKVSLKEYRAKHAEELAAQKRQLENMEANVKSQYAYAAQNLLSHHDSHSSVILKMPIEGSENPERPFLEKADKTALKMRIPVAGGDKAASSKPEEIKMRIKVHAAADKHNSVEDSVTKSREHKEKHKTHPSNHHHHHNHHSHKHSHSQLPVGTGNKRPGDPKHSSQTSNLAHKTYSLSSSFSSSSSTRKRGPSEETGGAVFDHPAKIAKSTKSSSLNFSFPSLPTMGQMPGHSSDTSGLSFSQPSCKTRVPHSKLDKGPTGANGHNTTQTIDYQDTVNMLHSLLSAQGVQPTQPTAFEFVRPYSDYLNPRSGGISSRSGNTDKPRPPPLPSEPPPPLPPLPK
IC50 (CDK9/CycT1),Selectivity high ATP CDK9 over high ATP CDK2: IC50 (high ATP CDK2)/IC50 (high ATP CDK9) (CDK9/CycT1),IC50 (Caco-2 cells),IC50 (HeLa cells),SMILES
1.8 nM,87,8.4 nM,4.4 nM,"CS(=N)(=O)Cc1cc2cc(c1)OCCCCNc1cc(ccc1F)-c1nc(ncc1F)N2 (racemic) [Example 2, (rac)-3,20-difluoro-10-[(S-methylsulfonimidoyl)methyl]-13-oxa-5,7,18,25-tetraazatetracyclo[17.3.1.1^2,6.1^8,12]pentacosa-1(23),2(25),3,5,8(24),9,11,19,21-nonaene]"
1.8 nM,460,20 nM,15 nM,"CS(=N)(=O)Cc1cc2cc(c1)OCCCNc1cc(ccc1F)-c1nc(ncc1F)N2 (racemic) [Example 3, (rac)-3,19-difluoro-10-[(S-methylsulfonimidoyl)methyl]-13-oxa-5,7,17,24-tetraazatetracyclo[16.3.1.1^2,6.1^8,12]tetracosa-1(22),2(24),3,5,8(23),9,11,18,20-nonaene]"
0.8 nM,606,–,–,"CC1CCCNc2cc(ccc2F)-c2nc(ncc2F)Nc2cc(CS(C)(=O)=O)cc(c2)O1 (racemic) [Example 8, (rac)-3,20-difluoro-14-methyl-10-[(methylsulfonyl)methyl]-13-oxa-5,7,18,25-tetraazatetracyclo[17.3.1.1^2,6.1^8,12]pentacosa-1(23),2(25),3,5,8(24),9,11,19,21-nonaene]"
3.4 nM,249,70 nM,40 nM,"CC(C)(C)OC(=O)N=S(C)(=O)Cc1cc2cc(c1)OCCCCNc1cc(ccc1F)-c1nc(ncc1F)N2 (racemic) [Example 1, (rac)-tert-butyl [{[3,20-difluoro-13-oxa-5,7,18,25-tetraazatetracyclo[17.3.1.1^2,6.1^8,12]pentacosa-1(23),2(25),3,5,8(24),9,11,19,21-nonaen-10-yl]methyl}(methyl)oxido-λ^6-sulfanylidene]carbamate]"
